Consider 19 molecules from ChEMBL document CHEMBL4043279 (Bioorg Med Chem Lett, 2017).

Structures are written as SMILES. Where only a bound is given, the exact number is not on record here.

The subject of experiment [1] is PC-3. The experiment is described as follows: Antiproliferative activity against human PC3 cells treated for 24 hrs measured after 72 hrs by MTT assay. The class given is functional, cell-based. Background: Tetrazolium assays rely on reduction of a dye to a coloured formazan, in cell work by metabolically active cells.
Experiment [2] has as its system HepG2. In words: Antiproliferative activity against human HepG2 cells treated for 24 hrs measured after 72 hrs by MTT assay. It is filed as functional, cell-based.
The subject of experiment [3] is THP-1. The experiment is described as follows: Antiproliferative activity against human THP1 cells treated for 24 hrs measured after 72 hrs by MTT assay. The class given is functional, cell-based.
Experiment [4] deals with HL-60. In words: Antiproliferative activity against human HL60 cells treated for 24 hrs measured after 72 hrs by MTT assay. It is filed as functional, cell-based.
The test system of experiment [5] is PBMC. The experiment is described as follows: Antiproliferative activity against human PBMC treated for 24 hrs measured after 72 hrs by MTT assay. The class given is cell-based.

A word on the IC50: it is the point on the concentration scale where inhibition reaches its midpoint. Read a high IC50 as weaker potency. On to `O=C(O)CCCc1ccc(N(CCCl)CCCl)cc1` [CHLORAMBUCIL], for which the concentration for half-maximal inhibition (IC50) is 42.1 µM in experiment [1]; greater than 100 µM in experiment [2]; 5.3 µM in experiment [3]; 12.9 µM in experiment [4]; greater than 200 µM in experiment [5].

Consider `CN1c2ccccc2C(=O)N2CCc3c(n(CCCCCCOC(=O)c4ccc(N(CCCl)CCCl)cc4)c4ccccc34)C21` (stereo not drawn), for which the IC50 was greater than 100 µM in experiment [1]; greater than 100 µM in experiment [2]; 3.92 µM in experiment [3]; 23.5 µM in experiment [4]; greater than 200 µM in experiment [5].

`COC(=O)[C@H](Cc1ccc(N(CCCl)CCCl)cc1)NC(=O)CCC(=O)OCCCn1c2c(c3ccccc31)CCN1C(=O)c3ccccc3N(C)C21` (stereo partly drawn): the 50% inhibitory concentration (IC50) was greater than 100 µM in experiment [1]; greater than 100 µM in experiment [2]; 2.37 µM in experiment [3]; 1.12 µM in experiment [4]; greater than 200 µM in experiment [5].

For `CN1c2ccccc2C(=O)N2CCc3c(n(CCOC(=O)CCCc4ccc(N(CCCl)CCCl)cc4)c4ccccc34)C21` (stereo not drawn), the half-inhibitory concentration (IC50) in experiment [1] is 45.7 µM; in experiment [2], greater than 100 µM; in experiment [3] it was 4.82 µM; in experiment [4], 11.3 µM; in experiment [5], greater than 200 µM.

For `O=c1[nH]cc(F)c(=O)[nH]1` [FLUOROURACIL], the figures for the IC50 in experiment [1], in experiment [3] and in experiment [4] were 23.9 µM, 4.87 µM and 3.69 µM, respectively.

For the molecule `CN1c2ccccc2C(=O)N2CCc3c(n(CCCOC(=O)c4ccc(N(CCCl)CCCl)cc4)c4ccccc34)C21` (stereo not drawn), the IC50 in experiment [1] was greater than 100 µM; in experiment [2] it was greater than 100 µM; in experiment [3] it was 6.6 µM; in experiment [4], 30.9 µM; in experiment [5], greater than 200 µM.

Turning to `CN1c2ccccc2C(=O)N2CCc3c(n(CCCOCCCO)c4ccccc34)C21` (stereo not drawn), the concentration for half-maximal inhibition (IC50) was 19.9 µM in experiment [1]; greater than 100 µM in experiment [2]; 8.42 µM in experiment [3]; 5.31 µM in experiment [4]; greater than 200 µM in experiment [5].

As to `CN1c2ccccc2C(=O)N2CCc3c(n(CCCO)c4ccccc34)C21` (stereo not drawn), the IC50 in experiment [1] is 27.3 µM; in experiment [2], greater than 100 µM; in experiment [3], 8.89 µM; in experiment [4], 6.03 µM; in experiment [5] it was greater than 200 µM.

As for `CN1c2ccccc2C(=O)N2CCc3c(n(CCCOCCCOC(=O)CCCc4ccc(N(CCCl)CCCl)cc4)c4ccccc34)C21` (stereo not drawn), the concentration for half-maximal inhibition (IC50) in experiment [1] is 27.6 µM; in experiment [2], greater than 100 µM; in experiment [3], 5.31 µM; in experiment [4] it was 1.29 µM; in experiment [5] it was greater than 200 µM.

As for `COC(=O)[C@H](Cc1ccc(N(CCCl)CCCl)cc1)NC(=O)CCC(=O)O`, the concentration for half-maximal inhibition (IC50) in experiment [1] is greater than 100 µM; in experiment [2] it was 13.8 µM; in experiment [3], 3.84 µM; in experiment [4] it was 5.34 µM; in experiment [5], greater than 200 µM.

`CN1c2ccccc2C(=O)N2CCc3c(n(CCCOCCCOC(=O)c4ccc(N(CCCl)CCCl)cc4)c4ccccc34)C21` (stereo not drawn): the IC50 in experiment [1] is greater than 100 µM; in experiment [2] it was greater than 100 µM; in experiment [3], 9.29 µM; in experiment [4] it was 22.3 µM; in experiment [5] it was greater than 200 µM.

In the case of `CN1c2ccccc2C(=O)N2CCc3c(n(CCCOC(=O)CCCc4ccc(N(CCCl)CCCl)cc4)c4ccccc34)C21` (stereo not drawn), the IC50 in experiment [1] is greater than 100 µM; in experiment [2], greater than 100 µM; in experiment [3] it was 5.68 µM; in experiment [4], 4.3 µM; in experiment [5], greater than 200 µM.

On to `CN1c2ccccc2C(=O)N2CCc3c([nH]c4ccccc34)C21` (stereo not drawn), for which the concentration for half-maximal inhibition (IC50) turned out to be 14 µM in experiment [1]; 9.32 µM in experiment [2]; 3.37 µM in experiment [3]; 1.39 µM in experiment [4]; 22.9 µM in experiment [5].

For `CN1c2ccccc2C(=O)N2CCc3c(n(CCCCCCO)c4ccccc34)C21` (stereo not drawn), the half-inhibitory concentration (IC50) in experiment [1] is 21.5 µM; in experiment [2] it was greater than 100 µM; in experiment [3] it was 6.97 µM; in experiment [4] it was 8.53 µM; in experiment [5] it was greater than 200 µM.

Turning to `COC(=O)[C@H](Cc1ccc(N(CCCl)CCCl)cc1)NC(=O)CCC(=O)OCCn1c2c(c3ccccc31)CCN1C(=O)c3ccccc3N(C)C21` (stereo partly drawn), the IC50 is greater than 100 µM in experiment [1]; greater than 100 µM in experiment [2]; 9.37 µM in experiment [3]; 3.11 µM in experiment [4]; greater than 200 µM in experiment [5].

For `COC(=O)[C@H](Cc1ccc(N(CCCl)CCCl)cc1)NC(=O)CCC(=O)OCCCCCCn1c2c(c3ccccc31)CCN1C(=O)c3ccccc3N(C)C21` (stereo partly drawn), the half-inhibitory concentration (IC50) in experiment [1] is greater than 100 µM; in experiment [2] it was greater than 100 µM; in experiment [3], 4.24 µM; in experiment [4], 2.84 µM; in experiment [5] it was greater than 200 µM.

Turning to `CN1c2ccccc2C(=O)N2CCc3c(n(CCOC(=O)c4ccc(N(CCCl)CCCl)cc4)c4ccccc34)C21` (stereo not drawn), the concentration for half-maximal inhibition (IC50) was greater than 100 µM in experiment [1]; greater than 100 µM in experiment [2]; 33.6 µM in experiment [3]; 27.2 µM in experiment [4]; greater than 200 µM in experiment [5].

Take `CN1c2ccccc2C(=O)N2CCc3c(n(CCO)c4ccccc34)C21` (stereo not drawn): the concentration for half-maximal inhibition (IC50) in experiment [1] was 12.3 µM; in experiment [2], greater than 100 µM; in experiment [3], 1.64 µM; in experiment [4], 7.1 µM; in experiment [5], greater than 200 µM.

As to `CN1c2ccccc2C(=O)N2CCc3c(n(CCCCCCOC(=O)CCCc4ccc(N(CCCl)CCCl)cc4)c4ccccc34)C21` (stereo not drawn), the IC50 in experiment [1] was greater than 100 µM; in experiment [2] it was greater than 100 µM; in experiment [3], 10.5 µM; in experiment [4] it was 17.5 µM; in experiment [5], greater than 200 µM.
